Reference: BindingDB's records for doi:10.1021/jm980260f (Sapienza University of Rome, 1999)

Molecular target: T1, Gag-Pol polyprotein [588-1027]/[588-1147] (Human immunodeficiency virus 1, UniProt P04585)
T1 construct: 588-1027; 588-1147
Assay: HIV-1 RT Assay
Details: pH 7.8; 37 °C

CCC(C)Sc1nc(O)cc(Cc2c(Cl)cccc2Cl)n1 (stereo unspecified) [2-(butan-2-ylsulfanyl)-6-[(2,6-dichlorophenyl)methyl]-3,4-dihydropyrimidin-4-one] was tested. Which IC50 did it give?
The IC50 was 0.1 µM.
